Source: publication PMC8796707 (ACS chemical biology, 2020)
Read-outs that look alike come from different tables or passages of the source.

How the values were obtained:
dK-FRB/FKBP-HT = assay: Rapamycin chemical inducer of dimerization; format: biochemical; conditions: 100 nM dK fusion, 200 nM HT fusion, 250 nM rapamycin, 10 nM DAPA
dL5** = assay: Binding kinetics and affinity of dye to purified FAP; conditions: SD, N = 4
[1] = system: HaloTag (HT) protein fusion; assay: Binding to purified HaloTag protein fusion, denaturing SDS-PAGE
[2] = system: HEK293 cells expressing NLS-dL5**; assay: Cell permeability testing: labeling of nuclear localized FAP; format: cell-based; conditions: flow cytometry, 100 nM dye, normalized to MG-nBu
FRB-HT/dK-FKBP = assay: Rapamycin chemical inducer of dimerization; format: biochemical; conditions: 100 nM dK fusion, 200 nM HT fusion, 250 nM rapamycin, 10 nM DAPA
FRB-HT/dK-FKBP, sequence (P42345 2012-2144 limits assumed): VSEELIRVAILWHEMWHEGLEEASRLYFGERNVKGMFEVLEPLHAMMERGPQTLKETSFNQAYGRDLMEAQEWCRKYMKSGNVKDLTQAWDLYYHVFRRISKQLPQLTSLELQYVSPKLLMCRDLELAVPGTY
FRB-HT/dK-FKBP, sequence (P62942 2-108 limits assumed, further chain): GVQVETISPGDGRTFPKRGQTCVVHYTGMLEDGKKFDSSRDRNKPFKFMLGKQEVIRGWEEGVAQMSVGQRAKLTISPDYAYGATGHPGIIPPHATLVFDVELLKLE

dK (dL5(E52K)) = format: binding
[3] = system: HEK293 cells expressing dK-TM coplated with HT-TM-mCer3 cells; conditions: 10 nM DAPA dye
[4] = system: HEK293 cells expressing dL5**-TM coplated with HT-TM-mCer3 cells
[5] = system: HEK293 cells expressing HT-TM-mCer3 (HaloTag); format: cell-based; conditions: 500 nM dye, washed 6×, then 1 μM dL5**

dK-FRB/FKBP-HT, sequence (P42345 2021-2113 limits assumed): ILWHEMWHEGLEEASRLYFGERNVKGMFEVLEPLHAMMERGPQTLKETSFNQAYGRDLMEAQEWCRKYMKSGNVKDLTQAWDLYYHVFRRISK
dK-FRB/FKBP-HT, sequence (P62942 2-108 limits assumed, further chain): as the sequence (P62942 2-108 limits assumed, further chain) above

## MG-PEG3500-HexCl [DAPA]
dK-FRB/FKBP-HT
  increase in FAP–DAPA signal for rapamycin induced dimerization: 100%
dL5**
  off rate, koff, dL5**: 1.23 ± 0.06 ×10^−4 s^−1
  on rate, kon, dL5**: 3.2 ± 0.2 ×10^6 M^−1 s^−1
[1]
  binding to purified HaloTag protein fusion: irreversibly bind
[2]
  NLS-dL5** labeling signal relative to MG-nBu signal: 5%
FRB-HT/dK-FKBP
  increase in FAP–DAPA signal for rapamycin induced dimerization: 50%
dK (dL5(E52K)); SD, N = 4
  off rate, koff, dK: 53 ± 2 ×10^−4 s^−1
  on rate, kon, dK: 0.39 ± 0.03 ×10^6 M^−1 s^−1
dK (dL5(E52K)); dK versus dL5**
  difference in FAP/DAPA KD between dL5** and dK: ~ 500 fold
dK (dL5(E52K)); read-out: dissociation constant, KD, dK, KD = koff/kon, SD, N = 4
  Kd: 13.7 ± 0.5 nM
[3]
  signal increase at the contact site versus the noncontact site: 40 fold
[4]; 100 nM DAPA dye
  ratio between contact and noncontact signal: 1.9
[4]; DAPA dye between 0.5 nM and 10 nM
  ratio between contact and noncontact signal: > 3.8
[5]
  labeling of HaloTag expressing cells: specifically labeled mCer3 positive cells
